Measured values: paper PMC10303200 (ACS Central Science, 2023)

What follows are molecules tested against T1, PHA-E (Phaseolus vulgaris erythroagglutinin) (Phaseolus vulgaris, UniProt P05088). Details: read-out: Kd (Native); pH 6.9.
T1 construct: purchased Vector Laboratories (Newark, CA, USA)
Type: binding

T1 sequence (P05088 22-275 limits assumed): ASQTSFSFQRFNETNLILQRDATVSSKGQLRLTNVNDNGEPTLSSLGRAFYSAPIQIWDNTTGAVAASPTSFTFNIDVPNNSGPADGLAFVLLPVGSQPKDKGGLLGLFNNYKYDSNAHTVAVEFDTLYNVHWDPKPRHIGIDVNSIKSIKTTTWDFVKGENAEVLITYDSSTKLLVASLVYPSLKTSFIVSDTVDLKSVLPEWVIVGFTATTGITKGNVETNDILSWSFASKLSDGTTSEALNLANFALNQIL

Row | Structure (SMILES) | Kd
1 | CC(=O)N[C@H]1[C@H](O[C@H]2[C@H](O)[C@@H](NC(C)=O)C(O)O[C@@H]2CO[C@@H]2O[C@@H](C)[C@@H](O)[C@@H](O)[C@@H]2O)O[C@H](CO)[C@@H](O[C@@H]2O[C@H](CO[C@H]3O[C@H](CO)[C@@H](O)[C@H](O)[C@@H]3O[C@@H]3O[C@H](CO)[C@@H](O[C@@H]4O[C@H](CO)[C@H](O)[C@H](O)[C@H]4O)[C@H](O)[C@H]3NC(C)=O)[C@@H](O)[C@H](O[C@H]3O[C@H](CO)[C@@H](O)[C@H](O)[C@@H]3O[C@@H]3O[C@H](CO)[C@@H](O[C@@H]4O[C@H](CO)[C@H](O)[C@H](O)[C@H]4O)[C@H](O)[C@H]3NC(C)=O)[C@@H]2O)[C@@H]1O (stereo partly drawn) [HexNAc4Hex5Fuc1] | 12.3 ± 3.6 µM
2 | CC(=O)N[C@H]1[C@H](O[C@H]2[C@H](O)[C@@H](NC(C)=O)C(O)O[C@@H]2CO[C@@H]2O[C@@H](C)[C@@H](O)[C@@H](O)[C@@H]2O)O[C@H](CO)[C@@H](O[C@@H]2O[C@H](CO[C@H]3O[C@H](CO)[C@@H](O)[C@H](O)[C@@H]3O[C@@H]3O[C@H](CO)[C@@H](O)[C@H](O)[C@H]3NC(C)=O)[C@@H](O)[C@H](O[C@H]3O[C@H](CO)[C@@H](O)[C@H](O)[C@@H]3O[C@@H]3O[C@H](CO)[C@@H](O)[C@H](O)[C@H]3NC(C)=O)[C@@H]2O)[C@@H]1O (stereo partly drawn) [HexNAc4Hex3Fuc1] | 18.6 ± 3.5 µM
3 | CC(=O)N[C@H]1[C@H](O[C@H]2[C@H](O)[C@@H](NC(C)=O)C(O)O[C@@H]2CO)O[C@H](CO)[C@@H](O[C@@H]2O[C@H](CO[C@H]3O[C@H](CO)[C@@H](O)[C@H](O)[C@@H]3O[C@@H]3O[C@H](CO)[C@@H](O[C@@H]4O[C@H](CO)[C@H](O)[C@H](O)[C@H]4O)[C@H](O)[C@H]3NC(C)=O)[C@@H](O)[C@H](O[C@H]3O[C@H](CO)[C@@H](O)[C@H](O)[C@@H]3O[C@@H]3O[C@H](CO)[C@@H](O[C@@H]4O[C@H](CO)[C@H](O)[C@H](O)[C@H]4O)[C@H](O)[C@H]3NC(C)=O)[C@@H]2O)[C@@H]1O (stereo partly drawn) [HexNAc4Hex5] | 13.1 ± 0.8 µM
